# Reference: patent publication US11446282B2, “Methods of treating mixed dyslipidemia and hypertriglycertdemia” (Kowa Company, Ltd., priority 2017, dated 2022)
# Assays:
# [1] = system: European patients; assay: Study K-877-201, Phase 2 dose-finding study conducted in Europe; assay type: in vivo, human
# Description: (§1) In previous clinical trials, pemafibrate has been administered at doses ranging from 0.1 mg to 1.6 mg per day in healthy adults. Doses up to 0.4 mg per day have been administered in patients with dyslipidemia. […] Increases in LDL-C, both by beta quantification and calculation with the Friedewald equation, were also observed. Based on analysis of efficacy variables, pemafibrate appeared to have a lowering effect on Apo C3 that led to the conversion of VLDL particles to LDL particles, increasing the fraction of larger LDL particles, and reducing TG levels. Similarly, the reduction of Apo C3 led to increased removal of remnant-like particles and lowering of Apo B48. […] The observed increases in Apo A1 and HDL-C resulted from both increased production of Apo A1 in the liver and increased turnover of TG-rich lipoproteins, both of which were associated with a decreased CHD risk.
# [2] = Study K-877-12, pharmacokinetics in patients with renal impairment; assay type: in vivo, human; conditions: Japanese patients with renal impairment, even severe
# [3] = Urinary excretion in nonclinical and clinical studies; assay type: in vivo
# [4] = system: patients with dyslipidemia; assay: Previous clinical trials of pemafibrate (healthy adults, patients with dyslipidemia); assay type: in vivo, human
# Description: as §1
# Because the urinary excretion of pemafibrate is low, as shown by nonclinical and clinical studies, it is expected that pemafibrate can be used safely even in patients with renal impairment. In addition, because the drug has minimal inhibitory effects on major drug metabolizing enzymes in the liver, it is unlikely to cause drug-drug interactions; however, drugs which are strong organic anion-transporting polypeptide (OATP) inhibitors (e.g., cyclosporine and rifampin) do interact with pemafibrate.
# [5] = system: major drug metabolizing enzymes in the liver; assay: Inhibition of major drug metabolizing enzymes in the liver; assay type: in vitro ADME
# [6] = system: apolipoprotein (Apo) A1 transgenic mice; assay: TG decrease and HDL-C increase in Apo A1 transgenic mice; assay type: in vivo; conditions: versus fenofibrate
# [7] = system: dyslipidemic patients with statin; assay: Example 4 pooled analysis: lipoprotein subclasses by HPLC, with statin, by eGFR; assay type: in vivo, human; conditions: for Small HDL-C % Change from baseline to week 12 / Small LDL-C % Change from baseline to week 12 / Very small HDL-C % Change from baseline to week 12 / Very small LDL-C % Change from baseline to week 12: LS mean
# Description: The present study analyzed data combined from 6 randomized double-blind placebo-controlled studies that were conducted in Japan and continued for 12 weeks unless otherwise noted: a phase 2 study in 224 patients with a history of documented dyslipidemia and plasma TG of 200 mg/dL (2.26 mmol/L) or higher, randomized to placebo, pemafibrate 0.05, 0.1, 0.2, 0.4 mg/day, or fenofibrate 100 mg/day; a phase 3 study in 526 patients with dyslipidemia, high TG levels, and low HDL-C levels, randomized to placebo, pemafibrate 0.1, 0.2, or 0.4 mg/day, or fenofibrate 100 or 200 mg/day; a study in 188 patients with dyslipidemia, randomized to pitavastatin in combination with pemafibrate 0.1, 0.2, or 0.4 mg/day; a 24-week study in 423 patients with dyslipidemia, randomized to pemafibrate 0.2 mg/day (fixed dose) or 0.2 [0.4] mg/day (conditional up-titration) with any statin; a 24-week phase 3 study in 166 patients with type 2 diabetes and hypertriglyceridemia, randomized to placebo or pemafibrate 0.2 or 0.4 mg/day; and a study in 27 patients with hypertriglyceridemia and insulin resistance, randomized to pemafibrate 0.4 mg/day or placebo. All studies were approved by the Institutional Review Board for each study institution and were conducted in accordance with the Declaration of Helsinki and under the guidelines of Good Clinical Practice.
# In this study, we evaluated the efficacy and safety of pemafibrate at doses of 0.1 mg/day, 0.2 mg/day, and 0.4 mg/day, with and without statin. The primary efficacy endpoint was percent change in TG from baseline to 12 weeks. The secondary efficacy endpoints were also assessed from baseline to 12 weeks: percent change in HDL-C, LDL-C, non-HDL-C, TC, RemL-C, Apo AI, Apo AII, Apo B, Apo B48, Apo CII, Apo CIII, Apo CIII/Apo CII, and Apo E; percent change in HPLC findings for CM-C, VLDL-C, cholesterol content in 4 subclasses of LDL (large, medium, small, and very small LDLs), and cholesterol content for 5 subclasses of HDL (very large, large, medium, small, and very small HDLs); and changes in fibrinogen and FGF21. The primary safety endpoints were the incidence of adverse events and adverse drug reactions. Secondary safety endpoints were percentage of values above the upper limit of normal range for AST, ALT, sCr and CK, and change in sCr eGFR, CK, AST, ALT, gamma-glutamyl transferase (γ-GT), alkaline phosphatase (ALP), and total bilirubin.
# Patients with renal dysfunction were defined as those with baseline eGFR<60 mL/min/1.73 m^2. Analysis was stratified by the presence or absence of renal dysfunction in the concomitant statin group, and efficacy and safety of pemafibrate were evaluated. In efficacy and safety evaluations excluding AEs, ADRs, and cutoff values for AST, ALT, sCr, and CK, findings were combined for pemafibrate subgroups receiving doses of 0.1 mg/day, 0.2 mg/day, and 0.4 mg/day.
# For each lipid parameter, gel filtration HPLC was performed at Skylight Biotech, Inc. Other measurements were performed at LSI Medience Corporation. The FAS was used for analyzing efficacy parameters of effects on lipids, fibrinogen, and FGF21. The safety analysis set was used for safety parameters and included all patients who received at least one dose of the study drug. For lipid parameters, fibrinogen, and FGF21, LS means (95% confidence interval) were calculated at Week 12 (LOCF) using analysis of covariance (ANCOVA) with baseline values as the co-variable within each category. For safety parameters, LS means (95% confidence interval) were calculated at Week 12 using ANCOVA with baseline values as the co-variable within each category. SAS version 9.2 was used for analyses.
# [8] = system: organic anion-transporting polypeptide (OATP); assay: Drug-drug interaction with strong OATP inhibitors
# [9] = baseline to Week 12, last observation carried forward
# [10] = Baseline eGFR < 60 mL/min/1.73 m^2, 0.1-0.4 mg/day
# [11] = Baseline eGFR ≥ 60 mL/min/1.73 m^2, 0.1-0.4 mg/day
smiles,measurement,setting,value
"CC[C@@H](Oc1cccc(CN(CCCOc2ccc(OC)cc2)c2nc3ccccc3o2)c1)C(=O)O [Pemafibrate, (2R)-2-[3-({1,3-benzoxazol-2-yl[3-(4-methoxyphenoxy)propyl]amino}methyl)phenoxy]butanoic acid]",placebo-adjusted TG reduction,[1]; 0.2 mg twice daily,54.4%
same,Apo A1 change,[1]; [9],increases
same,Apo A2 change,[1]; [9],increases
same,Apo B48 change,[1]; [9],decreases
same,Apo C2 change,[1]; [9],decreases
same,Apo C3 change,[1]; [9],decreases
same,FGF21 change,[1]; [9],increases
same,HDL-C change,[1]; [9],increases
same,VLDL-C change,[1]; [9],decreases
same,LDL-C change,[1]; by beta quantification and Friedewald equation,Increases
same,non-HDL-C change,[1]; in vivo,decrease
same,total Apo B levels change,[1]; in vivo,no changes
same,efficacy in TG reduction and HDL-C elevation,[1]; twice daily compared to once daily,Greater efficacy
same,differences in pharmacokinetics (PK) with renal impairment,[2],no meaningful differences
same,urinary excretion,[3],low
same,TG change,[4]; Japanese and European patients,dose-dependent decreases
same,safety profile,"[4]; total daily doses 0.1 mg to 0.4 mg, daily or divided twice daily",acceptable safety profile
same,inhibitory effects on major drug metabolizing enzymes in the liver,[5],minimal
same,potency in decreasing TG and increasing HDL-C,[6],more potent than fenofibrate
same,Small HDL-C Week 12 (LOCF),[7]; [10],0.484 mmol/L
same,Small LDL-C Week 12 (LOCF),[7]; [10],0.577 mmol/L
same,Very small HDL-C Week 12 (LOCF),[7]; [10],0.208 mmol/L
same,Very small LDL-C Week 12 (LOCF),[7]; [10],0.229 mmol/L
same,Small HDL-C % Change from baseline to week 12,[7]; [10],34.9%
same,Small LDL-C % Change from baseline to week 12,[7]; [10],−7.8%
same,Very small HDL-C % Change from baseline to week 12,[7]; [10],25.2%
same,Very small LDL-C % Change from baseline to week 12,[7]; [10],−14.6%
same,Small HDL-C Week 12 (LOCF),[7]; [11],0.470 mmol/L
same,Small LDL-C Week 12 (LOCF),[7]; [11],0.576 mmol/L
same,Very small HDL-C Week 12 (LOCF),[7]; [11],0.204 mmol/L
same,Very small LDL-C Week 12 (LOCF),[7]; [11],0.231 mmol/L
same,Small HDL-C % Change from baseline to week 12,[7]; [11],26.7%
same,Small LDL-C % Change from baseline to week 12,[7]; [11],−6.0%
same,Very small HDL-C % Change from baseline to week 12,[7]; [11],19.4%
same,Very small LDL-C % Change from baseline to week 12,[7]; [11],−12.5%
same,small and very small LDL-C and HDL particle sizes (observation),[7]; lower eGFR group,improvements
same,"interaction with strong OATP inhibitors (e.g., cyclosporine and rifampin)",[8],interact
